Data taken from patent US20240277718A1, “USE OF […] TO REDUCE ORGAN FIBROSIS” (SUNN[…].R.L., priority 2021, published 2024).
Entries after “also recorded” stand apart in the source; their conditions may differ.

Assays:
[1] = tested on: systemic fibrosis induced with hypochlorous acid (HOCI) in Balb/c mice; assay: Histological analysis (hematoxylin/eosin, Masson's trichrome, Picrosirius red) of skin, heart and lung in HOCI-induced systemic fibrosis; assay type: in vivo; conditions: HOCI+Istra vs HOCI group, week 4 to 6
Experimental: Histological analysis, hematoxylin/eosin staining, Masson's trichrome and Picrosirius red: Tissues for histological and immunohistochemical analyses were fixed in 10% buffered formalin for 24 hours and then included according to standard paraffin protocol. The classic hematoxylin/eosin, Masson and Pricrosirius stainings were performed on 5-6 μm thickness tissue slices that were routinely processed using an automated histology preparer.
(§1) In fact, data obtained from literature indicate that it is possible to find a significant fibrosis in the major organs such as skin, heart, large vessels and lungs, already at the fourth week of induction of the disease: for this reason, the treatment with istradefylline started at the fourth week, carrying on both induction and treatment up to the sixth week.
Animals were divided into 3 groups of 7 animals each. A group was used as control group and was the group of untreated animals (“Sham”); a group was subcutaneously treated with 400 μl of an aqueous solution of hypochlorous acid (HOCI) for 6 weeks; lastly a group was subcutaneously treated with the above-mentioned solution of HOCI at the dose of 400 μl (for 6 weeks) and with istradefylline (from week 4 up to week 6) at the dose of 10 mg/kg per day intraperitoneally and 1 hour after HOCI injection (“HOCI+Istra”). […]

[2] = tested on: genes encoding TGF-b, Wnt1, Wnt5, Wnt10, DKK1 and Col1A1; assay: Quantitative Real-Time PCR of fibrosis-related genes in lungs in HOCI-induced systemic fibrosis; assay type: in vivo, Balb/c mice; conditions: HOCI+Istra vs HOCI group, 10 mg/kg per day intraperitoneally, week 4 to 6, FIG. 4
Experimental: Quantitative Real Time PCR Method: Reverse transcription was performed using the Super-Script IV Reverse Transcriptase synthesis kit (Thermo Fisher Scientific) and random primers as indicated in the manufacturer's protocol and 1 μl of cDNA was then used for the PCR reaction by using ready-made primers (to identify Wnt1, Wnt 5, Wnt 10, TGF-b, Collagen 1A1 and DKK1) and Thermo Fisher Scientific master mix in the QuantStudio 6 Flex instrument from Applied Biosystems.
as §1
Animals were divided into 3 groups of 7 animals each. […]
Lungs obtained from the animals of all the experimental groups were subjected to the extraction of the total RNA which was then analyzed with the quantitative Real-Time PCR and specific primers to evaluate the expression of the genes encoding for TGF-b, Wnt1, Wnt5, Wnt10, DKK1 and Col1A1 (type I collagen) measured compared to the expression of the housekeeping gene, b-actin.

[3] = tested on: vimentin and b-catenin (Wnt/b-catenin pathway); assay: Immunofluorescence for vimentin and b-catenin in skin, heart and lung in HOCI-induced systemic fibrosis; assay type: in vivo, Balb/c mice; conditions: HOCI+Istra vs HOCI group; all studied tissues (skin, lung, heart); 10 mg/kg per day intraperitoneally, week 4 to 6; FIG. 3
Experimental: Immunofluorescence methods to mark vimentin and b-catenin: For immunohistochemistry the 5 μm tissue slices were incubated with 10 mmol/pH 6.0 citrate buffer in a temperature of 98° C. for 20 min. To reduce the background fluorescence, tissues were kept in a humidified chamber in 2 mmol/L glycine for 30 minutes. For the blocking of nonspecific antigenic sites, incubation was performed for 1 hour with 5% fetal bovine serum diluted in PBS, with the addition of 3% serum bovine albumin and 1% Triton X-100. Primary antibodies (p-Ser552 b-catenin, diluted 1:200; Cell Signal Technologies; Vimentin monoclonal antibody diluted 1:800; Sigma-Aldrich) were diluted in PBS and kept for 1 hour at room temperature. A species-specific antibody from Vector Laboratories was used as a negative control of the reaction. Secondary antibodies labeled with anti-rabbit IgG-fluorescein isothiocyanate (green fluorescence) or with anti-mouse IgG Alexa Fluor 555 (fred fluorescence) were kept for 1 hour at room temperature before mounting the slides and to observe the reaction under the microscope. […]

For `CCn1c(=O)c2c(nc(/C=C/c3ccc(OC)c(OC)c3)n2C)n(CC)c1=O` [istradefylline, 8-[(1E)-2-(3,4-Dimethoxyphenyl)ethenyl]-1,3-diethyl-3,7-dihydro-7-methyl-1H-purine-2,6-dione], the “thickening in skin and at the myocardial and pulmonary level (hematoxylin/eosin)” value ([1]; istradefylline 10 mg/kg per day intraperitoneally, FIG. 1) was “significantly reduce the thickening”, the “collagen fibers deposition (Masson trichrome and Picrosirius red)” value ([1]; skin, lung and heart tissues, 10 mg/kg per day intraperitoneally, FIG. 2, 10 mg/kg/day) was “lower deposition of collagen fibers; also recorded: significant reduction collagen fibers deposition” and the “expression of genes related to the fibrotic process (Wnt1, 5, 10 and TGF-b; 'all 3 targets') relative to b-actin” value [2] was “significant reduction in the expression”. The “positivity of b-catenin (immunofluorescence)” value [3] was “significantly reduced the positivity” and the “positivity of vimentin (immunofluorescence, fibroblast marker)” value [3] was “significantly reduced the positivity”.
